The values below come from patent publication US20240218022A1, “ANTI-VISTA MACROCYCLIC PEPTIDES AND COMPOSITIONS” (BRISTOL-MYERS SQUIBB COMPANY, priority 2022, published 2024).

Starred links: 1 amine or outer side, 2 acyl side, 3 side chain; linkers in the order of their positions; H or OH if unused. Positions of bridges follow the written chain, without caps; N, C: chain ends. Non-standard residues stand in square brackets, D forms with d. Residues, ends and D or L forms follow the SMILES beside them. ξ: configuration not given here. Phe(4-CONH2) = NC(=O)c1ccc(C[C@H](N)C(=O)O)cc1; γGlu = O=C(O)[C@H](CCC(=O)[*:2])N[*:1]; 2Nal = N[C@@H](Cc1ccc2ccccc2c1)C(=O)O; βAsp = O=C(O)[C@H](CC(=O)[*:2])N[*:1]; Ahp(2) = CCCCC[C@H](N)C(=O)O; NMeNle = CCCC[C@H](NC)C(=O)O; Tle = CC(C)(C)[C@H](N)C(=O)O; NHexGly = CCCCCCNCC(=O)O; Nle = CCCC[C@H](N)C(=O)O; Orn = NCCC[C@H](N)C(=O)O; Aun = NCCCCCCCCCCC(=O)O; AEEA = NCCOCCOCC(=O)O; ξP = O=C(O)C1CCCN1

One assay deals with T1, mouse VISTA (mVISTA) (Mus musculus, UniProt Q9D659).
T1 construct: expressed in transfected cells; host or cells: Human embryonic kidney 293T cells
T1 sequence (Q9D659 33-308): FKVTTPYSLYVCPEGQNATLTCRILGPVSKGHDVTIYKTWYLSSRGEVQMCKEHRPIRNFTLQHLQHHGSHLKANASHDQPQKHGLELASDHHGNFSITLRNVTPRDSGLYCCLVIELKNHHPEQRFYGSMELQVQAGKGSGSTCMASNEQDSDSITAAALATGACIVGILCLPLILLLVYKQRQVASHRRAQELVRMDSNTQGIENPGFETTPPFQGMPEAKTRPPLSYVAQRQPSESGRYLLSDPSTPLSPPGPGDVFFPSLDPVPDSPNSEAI
Briefly: Cell-Based Binding High-Content Assay For mVISTA (HC CBA mVISTA). The conditions noted are these: cell-based binding high-content assay, mVISTA; read-out: HC CBA miPrISTA IC50. The procedure, abridged: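 This high-content binding assay uses HEK293T cells expressing murine VISTA, measuring displacement of 2 nM biotinylated peptide by fluorescent streptavidin imaging. IC50 values come from four-parameter logistic fitting.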
In general, IC50 refers to the concentration at which inhibition is half-maximal. As for `CCCCCCN1CC(=O)N[C@@H](Cc2ccc(O)cc2)C(=O)N[C@@H](CC(C)C)C(=O)N[C@@H](CC(N)=O)C(=O)N[C@@H](CCCNC(=N)N)C(=O)N(C)[C@@H](CCCC)C(=O)N[C@@H](CCCCC)C(=O)N2CCC[C@H]2C(=O)N[C@@H](C(C)(C)C)C(=O)N[C@@H](CO)C(=O)N[C@H](C(=O)N[C@@H](CC(=O)NCCOCCOCC(=O)N[C@@H](CC(=O)O)C(=O)NCCOCCOCC(=O)NCCCCCCCCCCC(=O)O)C(=O)O)CSCC(=O)N[C@@H](Cc2ccc(C(N)=O)cc2)C(=O)N[C@@H](Cc2c[nH]c3ccccc23)C(=O)N[C@@H](CC(=O)O)C1=O` [compound 2090] ({CH2CO}-[Phe(4-CONH2)]WD[NHexGly]YLNR[NMeNle][Ahp(2)]P[Tle]SC[βAsp][AEEA]D[AEEA][Aun]-OH; thioether N-14), the IC50 turned out to be 34.4 nM.

With `CCCCCCN1CC(=O)N[C@@H](Cc2ccc(O)cc2)C(=O)N[C@@H](CC(C)C)C(=O)N[C@@H](CC(N)=O)C(=O)N[C@@H](CCCNC(=N)N)C(=O)N(C)[C@@H](CCCC)C(=O)N[C@@H](CCCCC)C(=O)N2CCC[C@H]2C(=O)N[C@@H](C(C)(C)C)C(=O)N[C@@H](CC(=O)O)C(=O)N[C@H](C(=O)N[C@@H](CC(=O)NCCOCCOCC(=O)N[C@@H](CC(=O)O)C(=O)NCCOCCOCC(=O)NCCCCCCCCCCC(=O)O)C(=O)O)CSCC(=O)N[C@@H](Cc2ccc(C(N)=O)cc2)C(=O)N[C@@H](Cc2c[nH]c3ccccc23)C(=O)N[C@@H](CC(=O)O)C1=O` [compound 2091] ({CH2CO}-[Phe(4-CONH2)]WD[NHexGly]YLNR[NMeNle][Ahp(2)]P[Tle]DC[βAsp][AEEA]D[AEEA][Aun]-OH; thioether N-14), the concentration for half-maximal inhibition (IC50) turned out to be 14.6 nM.

On to `CCCCCCN1CC(=O)N[C@@H](Cc2ccc(O)cc2)C(=O)N[C@@H](CC(C)C)C(=O)N[C@@H](CC(N)=O)C(=O)N[C@@H](CCCN)C(=O)N(C)[C@@H](CCCC)C(=O)N[C@@H](CCCCC)C(=O)N2CCC[C@H]2C(=O)N[C@@H](C(C)(C)C)C(=O)N[C@@H](CC(=O)O)C(=O)N[C@H](C(=O)N[C@@H](CC(=O)NCCOCCOCC(=O)N[C@@H](CC(=O)O)C(=O)NCCOCCOCC(=O)NCCCCCCCCCCC(=O)O)C(=O)O)CSCC(=O)N[C@@H](Cc2ccc(C(N)=O)cc2)C(=O)N[C@@H](Cc2ccc(O)cc2)C(=O)N[C@@H](CC(=O)O)C1=O` [compound 2092] ({CH2CO}-[Phe(4-CONH2)]YD[NHexGly]YLN[Orn][NMeNle][Ahp(2)]P[Tle]DC[βAsp][AEEA]D[AEEA][Aun]-OH; thioether N-14), for which the 50% inhibitory concentration (IC50) came to 15.8 nM.

In the case of `CCCCCCN1CC(=O)N[C@@H](Cc2ccc(O)cc2)C(=O)N[C@@H](C)C(=O)N[C@@H](CC(N)=O)C(=O)N[C@@H](CCCN)C(=O)N(C)[C@@H](CCCC)C(=O)N[C@@H](CCCCC)C(=O)N2CCC[C@H]2C(=O)N[C@@H](C(C)(C)C)C(=O)N[C@@H](CO)C(=O)N[C@H](C(=O)N[C@@H](CC(=O)NCCOCCOCC(=O)N[C@@H](CC(=O)O)C(=O)NCCOCCOCC(=O)NCCCCCCCCCCC(=O)O)C(=O)O)CSCC(=O)N[C@@H](Cc2ccccc2)C(=O)N[C@@H](Cc2c[nH]c3ccccc23)C(=O)N[C@@H](CC(=O)O)C1=O` [compound 2093] ({CH2CO}-FWD[NHexGly]YAN[Orn][NMeNle][Ahp(2)]P[Tle]SC[βAsp][AEEA]D[AEEA][Aun]-OH; thioether N-14), the half-inhibitory concentration (IC50) is 22.1 nM.

As to `CCCCCCN1CC(=O)N[C@@H](Cc2ccc(O)cc2)C(=O)N[C@@H](C)C(=O)N[C@@H](CC(N)=O)C(=O)N[C@@H](CCCNC(=N)N)C(=O)N(C)[C@@H](CCCC)C(=O)N[C@@H](CCCCC)C(=O)N2CCC[C@H]2C(=O)N[C@@H](C(C)(C)C)C(=O)N[C@@H](CC(=O)O)C(=O)N[C@H](C(=O)N[C@@H](CC(=O)NCCOCCOCC(=O)N[C@@H](CC(=O)O)C(=O)NCCOCCOCC(=O)NCCCCCCCCCCC(=O)O)C(=O)O)CSCC(=O)N[C@@H](Cc2ccccc2)C(=O)N[C@@H](Cc2c[nH]c3ccccc23)C(=O)N[C@@H](CC(=O)O)C1=O` [compound 2094] ({CH2CO}-FWD[NHexGly]YANR[NMeNle][Ahp(2)]P[Tle]DC[βAsp][AEEA]D[AEEA][Aun]-OH; thioether N-14), the IC50 worked out at 34.7 nM.

Regarding `CCCCCCN1CC(=O)N[C@@H](Cc2ccc(O)cc2)C(=O)N[C@@H](C)C(=O)N[C@@H](CC(N)=O)C(=O)N[C@@H](CCCN)C(=O)N(C)[C@@H](CCCC)C(=O)N[C@@H](CCCCC)C(=O)N2CCC[C@H]2C(=O)N[C@@H](C(C)(C)C)C(=O)N[C@@H](CC(=O)O)C(=O)N[C@H](C(=O)N[C@@H](CC(=O)NCCOCCOCC(=O)N[C@@H](CC(=O)O)C(=O)NCCOCCOCC(=O)NCCCCCCCCCCC(=O)O)C(=O)O)CSCC(=O)N[C@@H](Cc2ccccc2)C(=O)N[C@@H](Cc2ccc(O)cc2)C(=O)N[C@@H](CC(=O)O)C1=O` [compound 2095] ({CH2CO}-FYD[NHexGly]YAN[Orn][NMeNle][Ahp(2)]P[Tle]DC[βAsp][AEEA]D[AEEA][Aun]-OH; thioether N-14), the IC50 came to 50.1 nM.

As to `CCCCCCN1CC(=O)N[C@@H](Cc2ccc(O)cc2)C(=O)N[C@@H](C)C(=O)N[C@@H](CC(N)=O)C(=O)N[C@@H](CCCNC(=N)N)C(=O)N(C)[C@@H](CCCC)C(=O)N[C@@H](CCCCC)C(=O)N2CCC[C@H]2C(=O)N[C@@H](C(C)(C)C)C(=O)N[C@@H](CC(=O)O)C(=O)N[C@H](C(=O)N[C@@H](CC(=O)NCCOCCOCC(=O)N[C@@H](CC(=O)O)C(=O)NCCOCCOCC(=O)NCCCCCCCCCCC(=O)O)C(=O)O)CSCC(=O)N[C@@H](Cc2ccccc2)C(=O)N[C@@H](Cc2ccc(O)cc2)C(=O)N[C@@H](CC(=O)O)C1=O` [compound 2096] ({CH2CO}-FYD[NHexGly]YANR[NMeNle][Ahp(2)]P[Tle]DC[βAsp][AEEA]D[AEEA][Aun]-OH; thioether N-14), the half-maximal inhibitory concentration (IC50) turned out to be 20 nM.

For the compound `CCCCCCN1CC(=O)N[C@@H](Cc2ccc(O)cc2)C(=O)N[C@@H](C)C(=O)N[C@@H](CC(N)=O)C(=O)N[C@@H](CCCN)C(=O)N(C)[C@@H](CCCC)C(=O)N[C@@H](CCCCC)C(=O)N2CCC[C@H]2C(=O)N[C@@H](C(C)(C)C)C(=O)N[C@@H](CC(=O)O)C(=O)N[C@H](C(=O)N[C@@H](CC(=O)NCCOCCOCC(=O)N[C@@H](CC(=O)O)C(=O)NCCOCCOCC(=O)NCCCCCCCCCCC(=O)O)C(=O)O)CSCC(=O)N[C@@H](Cc2ccccc2)C(=O)N[C@@H](Cc2c[nH]c3ccccc23)C(=O)N[C@@H](CC(=O)O)C1=O` [compound 2097] ({CH2CO}-FWD[NHexGly]YAN[Orn][NMeNle][Ahp(2)]P[Tle]DC[βAsp][AEEA]D[AEEA][Aun]-OH; thioether N-14), the IC50 came to 22.2 nM.

Regarding `CCCCCCN1CC(=O)N[C@@H](Cc2ccc(O)cc2)C(=O)N[C@@H](C)C(=O)N[C@@H](CC(N)=O)C(=O)N[C@@H](CCCNC(=N)N)C(=O)N(C)[C@@H](CCCC)C(=O)N[C@@H](CCCCC)C(=O)N2CCC[C@H]2C(=O)N[C@@H](C(C)(C)C)C(=O)N[C@@H](CO)C(=O)N[C@H](C(=O)N[C@@H](CC(=O)NCCOCCOCC(=O)N[C@@H](CC(=O)O)C(=O)NCCOCCOCC(=O)NCCCCCCCCCCC(=O)O)C(=O)O)CSCC(=O)N[C@@H](Cc2ccccc2)C(=O)N[C@@H](Cc2c[nH]c3ccccc23)C(=O)N[C@@H](CC(=O)O)C1=O` [compound 2098] ({CH2CO}-FWD[NHexGly]YANR[NMeNle][Ahp(2)]P[Tle]SC[βAsp][AEEA]D[AEEA][Aun]-OH; thioether N-14), the half-inhibitory concentration (IC50) amounted to 36.6 nM.

The same assay, now with this note: read-out: HC CBA mVISTA IC50.
On to `CCCCCCN1CC(=O)N[C@@H](Cc2ccc(O)cc2)C(=O)N[C@@H](CCCC)C(=O)N[C@@H](CC(=O)O)C(=O)N[C@@H](CCCNC(=N)N)C(=O)N[C@@H](CC(C)C)C(=O)N[C@@H](CCCCC)C(=O)N2CCCC2C(=O)N[C@@H](C(C)C)C(=O)N[C@@H](CC(N)=O)C(=O)N[C@H](C(=O)NCC(=O)N[C@@H](CC(=O)NCCOCCOCC(=O)N[C@@H](CC(=O)O)C(=O)NCCOCCOCC(=O)NCCCCCCCCCCC(=O)O)C(=O)O)CSCC(=O)N[C@@H](Cc2ccccc2)C(=O)N[C@@H](Cc2ccc(O)cc2)C(=O)N[C@@H](CC(=O)O)C1=O` (stereo partly drawn) [compound 2108] ({CH2CO}-FYD[NHexGly]Y[Nle]DRL[Ahp(2)][ξP]VNCG[βAsp][AEEA]D[AEEA][Aun]-OH; thioether N-14), for which the half-maximal inhibitory concentration (IC50) turned out to be 14.4 nM.

Consider `CCCCCCN1CC(=O)N[C@@H](Cc2ccc(O)cc2)C(=O)N[C@@H](CCCC)C(=O)N[C@@H](CC(N)=O)C(=O)N[C@@H](CCCNC(=N)N)C(=O)N[C@@H](CC(C)C)C(=O)N[C@@H](CCCCC)C(=O)N2CCC[C@@H]2C(=O)N[C@@H](C(C)C)C(=O)N[C@@H](CO)C(=O)N[C@H](C(=O)NCC(=O)N[C@@H](CCC(=O)NCCOCCOCC(=O)N[C@@H](CC(=O)O)C(=O)NCCOCCOCC(=O)NCCCCCCCCCCC(=O)O)C(=O)O)CSCC(=O)N[C@@H](Cc2ccc3ccccc3c2)C(=O)N[C@@H](Cc2ccc(O)cc2)C(=O)N[C@@H](CC(=O)O)C1=O` [compound 2123] ({CH2CO}-[2Nal]YD[NHexGly]Y[Nle]NRL[Ahp(2)][dP]VSCG[γGlu][AEEA]D[AEEA][Aun]-OH; thioether N-14), for which the concentration for half-maximal inhibition (IC50) was found to be 17.9 nM.

Regarding `CCCCCCN1CC(=O)N[C@@H](Cc2ccc(O)cc2)C(=O)N[C@@H](CCCC)C(=O)N[C@@H](CC(N)=O)C(=O)N[C@@H](CCCNC(=N)N)C(=O)N(C)[C@@H](CCCC)C(=O)N[C@@H](CCCCC)C(=O)N2CCCC2C(=O)N[C@@H](C(C)C)C(=O)N[C@@H](CC(=O)O)C(=O)N[C@H](C(=O)NCC(=O)N[C@@H](CCC(=O)NCCOCCOCC(=O)N[C@@H](CC(=O)O)C(=O)NCCOCCOCC(=O)NCCCCCCCCCCC(=O)O)C(=O)O)CSCC(=O)N[C@@H](Cc2ccc3ccccc3c2)C(=O)N[C@@H](Cc2c[nH]c3ccccc23)C(=O)N[C@@H](CC(=O)O)C1=O` (stereo partly drawn) [compound 2125] ({CH2CO}-[2Nal]WD[NHexGly]Y[Nle]NR[NMeNle][Ahp(2)][ξP]VDCG[γGlu][AEEA]D[AEEA][Aun]-OH; thioether N-14), the IC50 was determined as 19.6 nM.
